Assay results: patent publication US20220024921A1, “1,3,4-OXADIAZOLONE COMPOUND AND PHARMACEUTICAL” (NIPPON SHINYAKU CO., LTD., priority 2018, published 2022)
Where a name gives a salt, the structure may show the parent alone.

Legend:
[1] = tested on: graft-versus-host disease model CB6F1 mice; assay: Lymphocyte proliferation inhibitory effect using graft-versus-host disease model animals (splenomegaly formation); format: in vivo; settings: Mus musculus, 240 h, oral, twice a day for 10 days, GVHD model CB6F1 mice, read-out: Inhibition rate (%) (splenomegaly formation); for inhibition in vivo at 6 mg/kg: single dose 6 mg/kg; for inhibition in vivo at 20 mg/kg: single dose 20 mg/kg; for inhibition in vivo at 10 mg/kg: single dose 10 mg/kg; for inhibition in vivo at 30 mg/kg: single dose 30 mg/kg
Experimental: BALB/c mice (8-week-aged female) were euthanized, and then the spleen was removed from each mouse. Then, hemolysis treatment was performed to isolate spleen cells. The obtained spleen cells were intravenously transplanted into CB6F1 mice (8-week-aged female), which are C57BL/6 and BALB/c F1 mice, to prepare a model, and splenomegaly was induced. For transplantation, spleen cells for 1.2 BALB/c mouse were used for one CB6F1 mouse.
Each test substance shown in Table 64 was weighed and dissolved in a 0.5% methyl cellulose solution, thereby preparing test substance solutions of 0.3 to 10 mg/mL.
A vehicle (0.5% methyl cellulose solution) or test substance was orally administered to each CB6F1 mouse after transplantation at a dose of 3 to 50 mg/kg in terms of body weight twice a day for 10 days from the day after transplantation. The mouse was euthanized on the 11th day from the start of administration, then the spleen was removed therefrom, and the wet weight of the spleen was measured. For each of CB6F1 mice that had not undergone transplantation as a control group, the wet weight of the spleen was also measured.
The splenomegaly formation inhibition rate when the spleen weights of the mice to which the vehicle was administered after transplantation and the mice on which transplantation had not been performed were 0% and 100%, respectively, was calculated.

[2] = biological target: PIM1 transgenic cells (Ba/F3) (Homo sapiens, UniProt P11309); assay: Proliferation inhibitory effect on PIM1 transgenic cells; format: cell-based, mouse; settings: proliferation inhibition, 72 hours, Cell Counting Kit-8, read-out: PIM1 IC50
Chain of PIM1 transgenic cells (Ba/F3) (P11309 whole entry, stated change not applied): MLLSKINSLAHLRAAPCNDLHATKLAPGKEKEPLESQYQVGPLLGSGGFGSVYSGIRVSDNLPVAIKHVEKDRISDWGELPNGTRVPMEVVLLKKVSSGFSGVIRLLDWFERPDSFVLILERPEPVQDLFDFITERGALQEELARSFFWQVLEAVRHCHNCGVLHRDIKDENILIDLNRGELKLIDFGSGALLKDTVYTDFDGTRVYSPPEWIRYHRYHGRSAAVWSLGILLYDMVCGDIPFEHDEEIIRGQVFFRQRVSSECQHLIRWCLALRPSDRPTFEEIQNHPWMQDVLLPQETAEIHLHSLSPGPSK
Summary of the method: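 Mouse Ba/F3 pro-B cells were retrovirally transduced with human PIM1 so that their proliferation depends on PIM1. Cells were treated with compound at 1–10000 nM final for 72 h, then read by CCK-8 (OD450−OD650). Inhibition was set against DMSO (0%) and no-cell blank (100%), and IC50 was obtained by two-parameter logistic regression.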

[3] = biological target: T1, PIM1 serine/threonine kinase (Homo sapiens, UniProt P11309); assay: PIM1 serine/threonine kinase inhibitory effect; format: biochemical; settings: PIM1 serine/threonine kinase activity; ATP 40 μM; 30° C., 30 minutes
T1 construct: purchased Carna Bioscience, Inc
T1 sequence (P11309 whole entry): as the sequence (P11309 whole entry, stated change not applied) above
Summary of the method: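 Recombinant PIM1 (0.15 μg/ml final) with 0.5 μM biotinylated substrate and 40 μM ATP in pH 7.0 HEPES/MgCl2 buffer, 30 min at 30° C. Compound range was 0.01–10000 nM final, n=2. HTRF detection with streptavidin-XL665 and anti-phospho antibody-cryptate, 1 h; IC50 from non-linear regression of the 665/620 ratio.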

SMILES | inhibition in vivo at 6 mg/kg [1] [%] | inhibition in vivo at 20 mg/kg [1] [%] | GI50 [2] [nM] | IC50 [3] [nM] | inhibition in vivo at 50 mg/kg ([1]; single dose 50 mg/kg) [%] | inhibition in vivo at 10 mg/kg [1] [%] | inhibition in vivo at 30 mg/kg [1] [%]
Cc1c(F)cc(-c2n[nH]c(=O)o2)cc1N[C@@H](C)[C@H]1CCNC[C@H]1C [Example 228] | 36.7 | 33.3 | 15 | 4.7 | – | – | –
C[C@H](Nc1cc(-c2n[nH]c(=O)o2)cc(Br)c1Cl)C1CCNCC1 [Example 97, 5-(3-bromo-4-chloro-5-{[(1S)-1-(piperidin-4-yl)ethyl]amino}phenyl)-1,3,4-oxadiazol-2(3H)-one dihydrochloride] | – | – | 55 | 1.2 | 33 | – | –
C[C@@H]1CNCC[C@@H]1[C@H](C)Nc1cc(-c2n[nH]c(=O)o2)cc(F)c1C(F)(F)F [Example 210, 5-[3-fluoro-5-({(1S)-1-[(3S,4S)-3-methylpiperidin-4-yl]ethyl}amino)-4-(trifluoromethyl)phenyl]-1,3,4-oxadiazol-2(3H)-one] | – | 48.4 | 15 | 1.3 | – | 44.9 | –
CC[C@@H]1CNCC[C@@H]1[C@H](C)Nc1cc(-c2n[nH]c(=O)o2)cc(F)c1C [Example 229, 5-[3-({(1S)-1-[(3S,4S)-3-ethylpiperidin-4-yl]ethyl}amino)-5-fluoro-4-methylphenyl]-1,3,4-oxadiazol-2(3H)-one] | 14.4 | 35.1 | 19 | 5.1 | – | – | –
C[C@H](Nc1cc(-c2n[nH]c(=O)o2)ccc1C(F)(F)F)C1(F)CCNCC1 [Example 125, 5-[3-{[(1S)-1-(4-fluoropiperidin-4-yl)ethyl]amino}-4-(trifluoromethyl)phenyl]-1,3,4-oxadiazol-2(3H)-one hydrochloride] | – | – | 40 | 2.9 | – | – | 45.1
C[C@H](Nc1cc(-c2n[nH]c(=O)o2)ccc1C(F)(F)F)[C@H]1C[C@@H](N)C1 [Example 145, 5-[3-({(1S)-1-[(1s,3R)-3-aminocyclobutyl]ethyl}amino)-4-(trifluoromethyl)phenyl]-1,3,4-oxadiazol-2(3H)-one hydrochloride] | – | 35.6 | 61 | 4 | – | 27.3 | –
C[C@H](Nc1cc(-c2n[nH]c(=O)o2)cc(F)c1Cl)[C@H]1CC[C@H](N)CC1 [Example 177, 5-[3-({(1S)-1-[(1r,4S)-4-aminocyclohexyl]ethyl}amino)-4-chloro-5-fluorophenyl]-1,3,4-oxadiazol-2(3H)-one hydrochloride] | – | 39.2 | 26 | 0.8 | – | 23.7 | –
C[C@H](Nc1cc(-c2n[nH]c(=O)o2)ccc1C(F)(F)F)[C@H]1CC[C@H](N)CC1 [Example 106, 5-[3-({(1S)-1-[(1r,4S)-4-aminocyclohexyl]ethyl}amino)-4-(trifluoromethyl)phenyl]-1,3,4-oxadiazol-2(3H)-one hydrochloride] | – | – | 19 | 1.5 | – | – | 39.8
C[C@@H]1CNCC[C@@H]1[C@H](C)Nc1cc(-c2n[nH]c(=O)o2)cc(F)c1OC(F)F [Example 214, 5-[4-(difluoromethoxy)-3-fluoro-5-({(1S)-1-[(3S,4S)-3-methylpiperidin-4-yl]ethyl}amino)phenyl]-1,3,4-oxadiazol-2(3H)-one] | – | 25.3 | 34 | 1.8 | – | 23.3 | –
C[C@H](Nc1cc(-c2n[nH]c(=O)o2)cc(F)c1C(F)(F)F)[C@H]1CC[C@H](N)CC1 [Example 151, 5-[3-({(1S)-1-[(1r,4S)-4-aminocyclohexyl]ethyl}amino)-5-fluoro-4-(trifluoromethyl)phenyl]-1,3,4-oxadiazol-2(3H)-one hydrochloride] | – | 40.3 | 17 | 1.8 | – | 33.8 | –
Cc1c(F)cc(-c2n[nH]c(=O)o2)cc1N[C@@H](C)[C@H]1CCNC[C@H]1F [Example 227, 5-[3-fluoro-5-({(1S)-1-[(3S,4R)-3-fluoropiperidin-4-yl]ethyl}amino)-4-methylphenyl]-1,3,4-oxadiazol-2(3H)-one] | 16.7 | 32.7 | 24 | 7.7 | – | – | –
C[C@H](Nc1cc(-c2n[nH]c(=O)o2)ccc1C(F)(F)F)[C@@H]1C[C@H](N)C1(C)C [Example 137, 5-[3-({(1S)-1-[(1R,3S)-3-amino-2,2-dimethylcyclobutyl]ethyl}amino)-4-(trifluoromethyl)phenyl]-1,3,4-oxadiazol-2(3H)-one hydrochloride] | – | – | 27 | 2.2 | – | – | 47.5
C[C@@H]1CNCC[C@@H]1[C@H](C)Nc1cc(-c2n[nH]c(=O)o2)ccc1C(F)(F)F [Example 217, 5-[3-({(1S)-1-[(3S,4S)-3-methylpiperidin-4-yl]ethyl}amino)-4-(trifluoromethyl)phenyl]-1,3,4-oxadiazol-2(3H)-one] | – | 41.7 | 26 | 2.8 | – | 36.3 | –
Cc1c(F)cc(-c2n[nH]c(=O)o2)cc1N[C@@H](C)[C@H]1CC[C@H](N)CC1 [Example 172, 5-[3-({(1S)-1-[(1r,4S)-4-aminocyclohexyl]ethyl}amino)-5-fluoro-4-methylphenyl]-1,3,4-oxadiazol-2(3H)-one dihydrochloride] | – | 19.3 | 49 | 2.5 | – | – | –
N[C@H]1CC[C@H](Nc2cc(-c3n[nH]c(=O)o3)ccc2OC(F)(F)F)CC1 [Example 38, 5-[3-{[(1r,4r)-4-aminocyclohexyl]amino}-4-(trifluoromethoxy)phenyl]-1,3,4-oxadiazol-2(3H)-one hydrochloride] | – | – | 550 | 20 | – | – | –
C[C@H](Nc1cc(-c2n[nH]c(=O)o2)cc(F)c1C(F)(F)F)[C@@H]1CCNC[C@@H]1C [Example 211, 5-[3-fluoro-5-({(1S)-1-[(3R,4R)-3-methylpiperidin-4-yl]ethyl}amino)-4-(trifluoromethyl)phenyl]-1,3,4-oxadiazol-2(3H)-one] | – | – | 110 | 4.9 | – | – | –
C[C@@H]1CN([C@@H](C)C2CCNCC2)c2cc(-c3n[nH]c(=O)o3)cc(F)c2O1 [Example 250, 5-{(2R)-8-fluoro-2-methyl-4-[(1S)-1-(piperidin-4-yl)ethyl]-3,4-dihydro-2H-1,4-benzoxazin-6-yl}-1,3,4-oxadiazol-2(3H)-one] | – | – | 190 | 5.7 | – | – | –
C[C@H](Nc1cc(-c2n[nH]c(=O)o2)cc(F)c1Cl)[C@H]1C[C@@H](N)C1 [Example 178, 5-[3-({(1S)-1-[(1s,3R)-3-aminocyclobutyl]ethyl}amino)-4-chloro-5-fluorophenyl]-1,3,4-oxadiazol-2(3H)-one hydrochloride] | – | – | 34 | 3.2 | – | – | –
O=c1[nH]nc(-c2ccc(C(F)(F)F)c(C#CC3CCNCC3)c2)o1 [Example 29, 5-{3-[(piperidin-4-yl)ethynyl]-4-(trifluoromethyl)phenyl}-1,3,4-oxadiazol-2(3H)-one hydrochloride] | – | – | 1100 | 18 | – | – | –
C[C@H](Nc1cc(-c2n[nH]c(=O)o2)cc(F)c1F)C1CCNCC1 [Example 89, 5-(3,4-difluoro-5-{[(1S)-1-(piperidin-4-yl)ethyl]amino}phenyl)-1,3,4-oxadiazol-2(3H)-one] | – | – | 250 | 5.4 | – | – | –
